Consider 3 molecules from publication doi:10.1101/2021.06.10.447852v1 (biorxiv, 2021).

Molecules are shown by their SMILES.

This assay has as its system EZH2 (methyltransferase component of PRC2). The assay can be described thus: cells. The note with it: Homo sapiens, HEK-293T, 48 h, read-out: Cell IC50 (H3K27me3) (nM).

For orientation: IC50 means the concentration that gives 50% inhibition.

Take `CSc1cc(C)[nH]c(=O)c1CN1CCN(C)c2c(Cl)cc(-c3c(C)noc3C)c(Cl)c2C1=O` [compound 21, TDI-11904]: the IC50 was found to be 6 nM.

As for `CSc1cc(C)n(C)c(=O)c1CN1CCN(C)c2c(Cl)cc(-c3c(C)noc3C)c(Cl)c2C1=O` [compound 22, 22], the IC50 is 1550 nM.

Consider `CSc1cc(C)n(C)c(=O)c1CN1CCNc2c(Cl)cc(-c3c(C)noc3C)c(Cl)c2C1=O` [compound 23, 23], for which the IC50 amounted to 167 nM.
